Columns and labels:
[1] = tested on: P. stuartii; settings: cited from earlier work; for resistance rates being reported: P. stuartii, first- and second-generation cephalosporins susceptible to its β-lactamases
[2] = tested on: P. stuartii PR500; assay: Level of aminoglycoside resistance of strain PR500; type: cell-based, Providencia stuartii; settings: PR500 (PR50 containing pR401 and pACYC184.aarG)
Description: Therefore, strain PR500, which is a derivative of the wild-type P. stuartii PR50 [Rather, P. et al., J. Bacteriol. 175:6492-6498 (1993)], was used. PR500 was generated by introducing into PR50 both pR401 (aac(2′)-lacZ) and pACYC184.aarG, a compatible pACYC184 derivative containing the aarG gene. PR500 forms white colonies on plates containing X-gal and has levels of aminoglycoside resistance to 4 μg/ml of gentamicin. Selection of mutants was achieved by plating approximately 10^8 cells of PR500 on LB plates containing 15 μg/ml of gentamicin and X-gal (to select and identify regulatory mutants), ampicillin (150 μg/ml) to maintain pR401 and chloramphenicol (100 μg/ml) to maintain pACYC184.aarG. As observed previously, colonies arose at a frequency of […] [Rather, P. et al., J. Bacteriol. 175:6492-6498 (1993)]. […] While not limiting the present invention to any particular mechanism, these colonies presumably resulted from mutations in a trans-acting regulator of aac(2′)-la since expression of both the chromosomal copy of aac(2′)-la and the plasmid encoded aac(2′)-lacZ fusion were increased. One class of mutants which formed small blue colonies was identified and a representative isolate, PR60, was characterized. Introduction by electroporation (Gene Pulser, Biorad) of the previously cloned aarA, aarB, and aarD genes [Macinga, D. R. et al., Mol. Microbiol. […]

Row | Compound | resistance rates being reported [1] [%] | proportions of P. stuartii resistant ([1]; both in wards where the drug is widely used and in others (e.g., geriatric wards) where it was not used) | levels of aminoglycoside resistance [2] [µg/mL]
1 | Cc1nnc(SCC2=C(C(=O)O)N3C(=O)[C@@H](NC(=O)Cn4cnnn4)[C@H]3SC2)s1 [cefazolin] | 94 |  | 
2 | CC1=C(C(=O)O)N2C(=O)[C@@H](NC(=O)[C@H](N)c3ccccc3)[C@H]2SC1 [cephalexin] | 100 |  | 
3 | O=C(Cc1cccs1)N[C@@H]1C(=O)N2C(C(=O)[O-])=C(C[n+]3ccccc3)CS[C@H]12 [cephaloridine] | 82 |  | 
4 | CC(=O)OCC1=C(C(=O)O)N2C(=O)[C@@H](NC(=O)Cc3cccs3)[C@H]2SC1 [cephalothin] | 97 |  | 
5 | gentamicin |  | 80-100% | 4

Source: US6383745B1, “Methods of screening for anti-microbial utilizing aarC and compositions thereof” (priority 1997, dated 2002)
